Data: patent US10550171B2, “Immunomodulatory peptides and methods of use thereof” (THE GOVERNORS OF THE UNIVERSITY OF ALBERTA, priority 2012, dated 2020)

Key:
[1] = tested on: STAT2 phosphorylation; assay: STAT2 phosphorylation in HFF-1 cells challenged with IL-28B, Western blot; assay type: cell-based, human; conditions: for blocking of STAT-2 phosphorylation: peptide pre-incubated 2 hours with IL-28B, then added to HFF1 for 30 minutes; for reduction in STAT2-phosphorylation: HFF-1 cells pre-incubated with peptide 10 μM, washed, IL-28B 100 ng/ml 30 minutes, normalized to STAT2 and β-tubulin
[2] = tested on: CMV (Towne strain); assay: CMV replication plaque assay in HFF-1 cells; assay type: cell-based, cytomegalovirus (CMV); conditions: HFF-1 cells pre-treated 2 h with peptide 10 μM; for inhibitory effect on CMV replication (viral growth curves, plaque assay): CMV Towne MOI 0.03, day 4 and day 6
Procedure: The data are depicted in FIG. 1. […] HFF-1 cells were pre-treated for 2 h with peptides (10 μM), then washed and infected with CMV (Towne strain, MOI 0.03) and viral growth curves were generated.
Peptides PRT ([…]; SEQ ID NO:23). LKY (ASVTFNLFRLLTRDLKY; SEQ ID NO: 15), and LNC (ASVTFNLFRLLTRDLNC; SEQ ID NO: 16) were pre-incubated at a concentration of 10 μM with HFF-1 cells (ATCC HS97FS. SCRC1041, and CCD1112SK). The cells were washed, then challenged with IL-28B (100 ng/ml) for 30 minutes. Peptides REV ([…]; SEQ ID NO:24), FKG ([…]; SEQ ID NO:25), and APP ([…]; SEQ ID NO:26) were pre-incubated for 2 hours with IL-28B, then added to HFF1 for 30 minutes. Proteins were harvested and STAT2 phosphorylation was determined by Western blot analysis. The effect of the peptides on CMV replication in HFF-1 cells was also tested. HFF-1 cells were pre-treated for 2 hours with peptides (10 μM) or control. CMV replication was determined 4 days later using plaque assays. The data are depicted in FIGS. 19 and 20. In FIG. 19, the data are from Western blot experiments. HFF11 cells were pre-treated with individual peptides for 2 hours, then challenged with IL28B for 30 minutes. Results were normalized to STAT2 and β-tubulin baseline expression. In FIG. 20, the data are from plaque assays. HFF1 cells were pre-treated with individual peptides for 2 hours, then infected with CMV Towne strain (multiplicity of infection 0.03). Plaque forming units (PFU) at day 4 were determined.

[3] = biological target: T1, binding of IL29 to IL-28R (Homo sapiens, UniProt Q8IU57); assay: ELISA assay, effect of peptides on binding of IL29 to IL-28R; conditions: for inhibition of the binding of IL29 to IL-28R: increasing peptide concentrations
T1 sequence (Q8IU57 21-228 limits assumed): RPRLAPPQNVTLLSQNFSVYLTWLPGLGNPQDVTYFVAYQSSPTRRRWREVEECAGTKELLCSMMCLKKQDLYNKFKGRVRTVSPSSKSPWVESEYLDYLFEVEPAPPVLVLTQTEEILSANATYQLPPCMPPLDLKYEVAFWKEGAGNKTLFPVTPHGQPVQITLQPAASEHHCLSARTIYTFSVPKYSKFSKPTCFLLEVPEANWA

[4] = biological target: T2, binding of IL28A to IL-28R (Homo sapiens, UniProt Q8IU57); assay: ELISA assay, effect of peptides on binding of IL28A to IL-28R; conditions: increasing peptide concentrations
T2 sequence (Q8IU57 21-228 limits assumed): T1 sequence (Q8IU57 21-228 limits assumed)

[5] = tested on: STAT1 phosphorylation; assay: STAT-1 phosphorylation in THP1-derived macrophages, flow cytometry; assay type: cell-based; conditions: IL28B 100 ng/mL, peptide 1 at 10 μM for 90 min before IL28B, peptide 17 added together with IL28B
Procedure: The effect of peptide 1 and peptide 17 on STAT-1 phosphorylation in macrophages was tested using flow cytometry.
STAT1 phosphorylation is one of the earliest events that occur after the IFN receptor is activated. THP1 cells (a monocytic cell line) were stimulated for 3 days with phorbol-12-myristate-13-acetate (PMA) and then rested for another 5 days in standard cultivation methods (37° C. 5% CO2) with RPMI containing 10% fetal calf serum (FCS). After 3 days, the PMA was removed and fresh media added. This treatment induces maturation of THP1, such that the THP1 cells are induced to express macrophage markers (Daigneault et al. (2010) PLoSOne 5:e8668). Next, the cells were treated: (i) either for 90 min with peptide 1 at a concentration of 10 μM and then added IL28B at 100 ng/mL or (ii) peptide 17 was added directly together with IL28B. “Scramble p1” is a control peptide with the amino acid sequence of p1 scrambled. Scramble p17” is a control peptide with the amino acid sequence of p17 scrambled.

[6] = biological target: T3, IL28R1 (Homo sapiens, UniProt Q8IU57); assay: Biacore assay, binding of interferon lambda ligands to IL28R1
T3 sequence (Q8IU57 21-520): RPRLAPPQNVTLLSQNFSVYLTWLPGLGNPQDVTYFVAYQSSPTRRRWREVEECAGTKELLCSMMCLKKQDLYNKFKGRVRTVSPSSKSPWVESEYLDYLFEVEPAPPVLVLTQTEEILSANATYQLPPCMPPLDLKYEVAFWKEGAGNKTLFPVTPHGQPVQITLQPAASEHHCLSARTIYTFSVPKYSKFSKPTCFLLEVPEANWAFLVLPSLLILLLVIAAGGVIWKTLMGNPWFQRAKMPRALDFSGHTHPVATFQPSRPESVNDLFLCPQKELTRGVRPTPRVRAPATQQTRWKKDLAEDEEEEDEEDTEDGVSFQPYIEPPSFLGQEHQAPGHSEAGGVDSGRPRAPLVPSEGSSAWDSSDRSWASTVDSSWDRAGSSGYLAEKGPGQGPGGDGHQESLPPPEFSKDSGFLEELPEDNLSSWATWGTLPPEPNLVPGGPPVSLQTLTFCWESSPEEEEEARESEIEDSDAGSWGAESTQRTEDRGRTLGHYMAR
Excerpt: FIG. 9 depicts binding affinity (KD values in PM) of ligands IL28A, IL28B, and IL29, and of peptides 1, 2, 6, 7, and 15-18, for IL28R1. […] In […], the KD values indicate differences between peptides.
FIG. 10 depicts the effect of peptides on binding of IL29 to IL-28R. Binding of IL29 was disrupted by addition of increasing peptide concentrations.

Molecule: VAYQSSPTRRRWREV [Peptide 8]
- blocking of STAT-2 phosphorylation [1]: None of peptides REV, FKG, and APP blocked

Molecule: ASVTFNLFRLLTRDLKY [Peptide 6]
- inhibitory effect on CMV replication (viral growth curves, plaque assay) [2]: strong inhibitory effects
- reduction in STAT2-phosphorylation [1]: 40%
- inhibition of the binding of IL29 to IL-28R [3]: highly potent

Molecule: LLKDCRCHSRLFPRTWDLRQ [Peptide 16]
- inhibition of the binding of IL28A to IL-28R [4]: potent

Molecule: LLKDCKCRSRLFPRTWDLRQ [Peptide 15]
- inhibition of the binding of IL28A to IL-28R [4]: potent

Molecule: MMCLKKQDLYNKFKG (MMCLKKQDLYNKFRG) [Peptide 9]
- blocking of STAT-2 phosphorylation [1]: None of peptides REV, FKG, and APP blocked

Molecule: KLKNWSCSSPVFPGNWDLRL [Peptide 17]
- inhibition of the binding of IL28A to IL-28R [4]: potent
- STAT1 phosphorylation [5]: reduce STAT1 phosphorylation

Molecule: SEYLDYLFEVEPAPP [Peptide 10]
- blocking of STAT-2 phosphorylation [1]: None of peptides REV, FKG, and APP blocked

Molecule: ASVTFNLFRLLTRDLNC [Peptide 7]
- lower CMV replication (plaque forming units) ([2]; CMV Towne MOI 0.03, day 4 after infection): 2.5 log10
- inhibitory effect on CMV replication (viral growth curves, plaque assay) [2]: strong inhibitory effects
- reduction in STAT2-phosphorylation [1]: 34%

Molecule: ELASFKKARDALEESLKL [Peptide 1]
- inhibitory effect on CMV replication (viral growth curves, plaque assay) [2]: strong inhibitory effects
- STAT1 phosphorylation [5]: reduce STAT1 phosphorylation
- IC50 for inhibition of IL29 binding, as excess of peptide over the natural ligand [3]: 50 time excess of peptide over the natural ligand
- inhibition of the binding of IL29 to IL-28R [3]: highly potent

B1: IL28B: polypeptide of about 196 amino acids which binds a heterodimeric IL-28R complex (protein, listed as Homo sapiens)
chain: MTGDCMPVLVLMAAVLTVTGAVPVARLRGALPDARGCHIAQFKSLSPQELQAFKRAKDALEESLLLKDCKCRSRLFPRTWDLRQLQVRERPVALEAELALTLKVLEATADTDPALGDVLDQPLHTLHHILSQLRACIQPQPTAGPRTRGRLHHWLHRLQEAPKKESPGCLEASVTFNLFRLLTRDLNCVASGDLCV
- binding affinity towards IL28R1 [6]: significant lower binding affinity

B2: IL29: polypeptide of about 200 amino acids which binds a heterodimeric IL-28 receptor complex (protein, listed as Homo sapiens)
chain: MAAAWTVVLVTLVLGLAVAGPVPTSKPTTTGKGCHIGRFKSLSPQELASFKKARDALEESLKLKNWSCSSPVFPGNWDLRLLQVRERPVALEAELALTLKVLEAAAGPALEDVLDQPLHTLHHILSQLQACIQPQPTAGPRPRGRLHHWLHRLQEAPKKESAGCLEASVTFNLFRLLTRDLKYVADGNLCLRTSTHPEST
- binding affinity towards IL28R1 [6]: highest binding affinity of all Interferon lambdas
